The experiment deals with T1, BCL6 (Homo sapiens, UniProt P41182).
T1 construct: endogenous in cells; host or cells: T47D breast cancer epithelial cells
Description: Immunofluorescence protocol for high content imaging of BCL6 (degradation) in T47D cells, 3 days compound treatment. The experiment is classed as cell-based. The following applies: T47D cells, 3 days compound treatment; for DC50: read-out: Mean DC50 (nM)* category; for Dmax: read-out: Mean Dmax (%)** category. An outline of the steps:
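High content immunofluorescence imaging (10×, 4 fields/well) of BCL6 using rabbit primary antibody, Alexa-488 secondary, cell mask and Hoechst nuclear stain after PFA fixation. Before staining, T47D cells (7K/well) were exposed for 3 days at 37° C to 3-fold serial dilutions of compound, top final concentration 0.1 or 1 μM.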

The DC50 is the concentration giving 50% degradation. A word on the Dmax: it is the greatest extent of degradation seen. In the case of `CNC(=O)COc1cc2cc(Nc3nc(N4CCC(CN5CC6(CCN(c7cc8c(c(OC)c7)C(=O)N(C7CCC(=O)NC7=O)C8)CC6)C5)CC4)ncc3Cl)ccc2n(C(C)C)c1=O` (stereo not drawn) [Compound 115, 2-{[6-({5-chloro-2-[4-({7-[2-(2,6-dioxopiperidin-3-yl)-7-methoxy-1-oxo-2,3-dihydro-1H-isoindol-5-yl]-2,7-diazaspiro[3.5]nonan-2-yl}methyl)piperidin-1-yl]pyrimidin-4-yl}amino)-2-oxo-1-(propan-2-yl)-1,2-dihydroquinolin-3-yl]oxy}-N-methylacetamide], the 50% degradation concentration (DC50) is under 10 nM and the maximal degradation (Dmax) was in the range of 50 to 70%.
On the same counts, the results for `CNC(=O)COc1cc2cc(Nc3nc(N4CCC(O[C@H]5C[C@H](N6CCC(c7c(F)cc8c(c7F)CN(C7CCC(=O)NC7=O)C8=O)CC6)C5)CC4)ncc3Cl)ccc2n(C(C)C)c1=O` (stereo partly drawn) [Compound 116, 2-({6-[(5-chloro-2-{4-[(1r,3r)-3-{4-[2-(2,6-dioxopiperidin-3-yl)-4,6-difluoro-1-oxo-2,3-dihydro-1H-isoindol-5-yl]piperidin-1-yl}cyclobutoxy]piperidin-1-yl}pyrimidin-4-yl)amino]-2-oxo-1-(propan-2-yl)-1,2-dihydroquinolin-3-yl}oxy)-N-methylacetamide] are under 10 nM and 50 to 70%.
Regarding `CNC(=O)COc1cc2cc(Nc3nc(N4CCC(O[C@H]5CC[C@H](N6CCC(c7ccc8c(c7)C(=O)N(C7CCC(=O)NC7=O)C8=O)CC6)CC5)CC4)ncc3Cl)ccc2n(C(C)C)c1=O` (stereo partly drawn) [Compound 117, 2-[(6-{[5-chloro-2-(4-{[(1r,4r)-4-{4-[2-(2,6-dioxopiperidin-3-yl)-1,3-dioxo-2,3-dihydro-1H-isoindol-5-yl]piperidin-1-yl}cyclohexyl]oxy}piperidin-1-yl)pyrimidin-4-yl]amino}-2-oxo-1-(propan-2-yl)-1,2-dihydroquinolin-3-yl)oxy]-N-methylacetamide], the DC50 was under 10 nM and the greatest degradation seen (Dmax) fell in the range of 50 to 70%.
On the same counts, the results for `CNC(=O)COc1cc2cc(Nc3nc(N4CCN(CC5CCN(c6cc(OC)cc7c6CN(C6CCC(=O)NC6=O)C7=O)CC5)CC4)ncc3Cl)ccc2n(C(C)C)c1=O` (stereo not drawn) [Compound 119, 2-{[6-({5-chloro-2-[4-({1-[2-(2,6-dioxopiperidin-3-yl)-6-methoxy-1-oxo-2,3-dihydro-1H-isoindol-4-yl]piperidin-4-yl}methyl)piperazin-1-yl]pyrimidin-4-yl}amino)-2-oxo-1-(propan-2-yl)-1,2-dihydroquinolin-3-yl]oxy}-N-methylacetamide] are under 10 nM and 50 to 70%.
On the same counts, the results for `CNC(=O)COc1cc2cc(Nc3nc(N4CCN(CC5CCN(c6ccc(F)c7c6CN(C6CCC(=O)NC6=O)C7=O)CC5)CC4)ncc3Cl)ccc2n(C(C)C)c1=O` (stereo not drawn) [Compound 120, 2-{[6-({5-chloro-2-[4-({1-[2-(2,6-dioxopiperidin-3-yl)-7-fluoro-1-oxo-2,3-dihydro-1H-isoindol-4-yl]piperidin-4-yl}methyl)piperazin-1-yl]pyrimidin-4-yl}amino)-2-oxo-1-(propan-2-yl)-1,2-dihydroquinolin-3-yl]oxy}-N-methylacetamide] are under 10 nM and 50 to 70%.
With `CNC(=O)COc1cc2cc(Nc3nc(N4CCN(CC5CCN(c6ccc(OC)c7c6CN(C6CCC(=O)NC6=O)C7=O)CC5)CC4)ncc3Cl)ccc2n(C(C)C)c1=O` (stereo not drawn) [Compound 121, 2-{[6-({5-chloro-2-[4-({1-[2-(2,6-dioxopiperidin-3-yl)-7-methoxy-1-oxo-2,3-dihydro-1H-isoindol-4-yl]piperidin-4-yl}methyl)piperazin-1-yl]pyrimidin-4-yl}amino)-2-oxo-1-(propan-2-yl)-1,2-dihydroquinolin-3-yl]oxy}-N-methylacetamide], the half-maximal degradation concentration (DC50) was under 10 nM and the Dmax was 50 to 70%.
On the same counts, the results for `CNC(=O)COc1cc2cc(Nc3nc(N4CCC(F)(CN5CC6(CCN(c7ccc8c(c7)CN(C7CCC(=O)NC7=O)C8=O)CC6)C5)CC4)ncc3Cl)ccc2n(C(C)C)c1=O` (stereo not drawn) [Compound 122, 2-{[6-({5-chloro-2-[4-({7-[2-(2,6-dioxopiperidin-3-yl)-1-oxo-2,3-dihydro-1H-isoindol-5-yl]-2,7-diazaspiro[3.5]nonan-2-yl}methyl)-4-fluoropiperidin-1-yl]pyrimidin-4-yl}amino)-2-oxo-1-(propan-2-yl)-1,2-dihydroquinolin-3-yl]oxy}-N-methylacetamide] are under 10 nM and 50 to 70%.
On the same counts, the results for `CNC(=O)COc1cc2cc(Nc3nc(N4CCC(OC5CCC6(CC5)CN(c5cc7c(cc5F)C(=O)N(C5CCC(=O)NC5=O)C7)C6)CC4)ncc3Cl)ccc2n(C(C)C)c1=O` (stereo not drawn) [Compound 123, 2-{[6-({5-chloro-2-[4-({2-[2-(2,6-dioxopiperidin-3-yl)-6-fluoro-1-oxo-2,3-dihydro-1H-isoindol-5-yl]-2-azaspiro [3.5]nonan-7-yl}oxy)piperidin-1-yl]pyrimidin-4-yl}amino)-2-oxo-1-(propan-2-yl)-1,2-dihydroquinolin-3-yl]oxy}-N-methylacetamide] are under 10 nM and at least 70%.
On the same counts, the results for `CNC(=O)COc1cc2cc(Nc3nc(N4CCC(CN5CC6(CCN(c7cccc8c7C(=O)N(C7CCC(=O)NC7=O)C8=O)CC6(F)F)C5)CC4)ncc3Cl)ccc2n(C(C)C)c1=O` (stereo not drawn) [Compound 124, 2-{[6-({5-chloro-2-[4-({7-[2-(2,6-dioxopiperidin-3-yl)-1,3-dioxo-2,3-dihydro-1H-isoindol-4-yl]-5,5-difluoro-2,7-diazaspiro[3.5]nonan-2-yl}methyl)piperidin-1-yl]pyrimidin-4-yl}amino)-2-oxo-1-(propan-2-yl)-1,2-dihydroquinolin-3-yl]oxy}-N-methylacetamide] are under 10 nM and 50 to 70%.
As for `CNC(=O)COc1cc2cc(Nc3nc(N4CCC(CN5CC6(CCN(c7cccc8c7CN(C7CCC(=O)NC7=O)C8=O)CC6(F)F)C5)CC4)ncc3Cl)ccc2n(C(C)C)c1=O` (stereo not drawn) [Compound 125, 2-{[6-({5-chloro-2-[4-({7-[2-(2,6-dioxopiperidin-3-yl)-1-oxo-2,3-dihydro-1H-isoindol-4-yl]-5,5-difluoro-2,7-diazaspiro[3.5]nonan-2-yl}methyl)piperidin-1-yl]pyrimidin-4-yl}amino)-2-oxo-1-(propan-2-yl)-1,2-dihydroquinolin-3-yl]oxy}-N-methylacetamide], the DC50 is under 10 nM and the maximal degradation (Dmax) lay in the range of 50 to 70%.
On the same counts, the results for `CNC(=O)COc1cc2cc(Nc3nc(N4CCC(CN5CCC6(CN(c7ccc8c(c7)C(=O)N(C7CCC(=O)NC7=O)C8=O)C6)C(F)(F)C5)CC4)ncc3Cl)ccc2n(CCOC)c1=O` (stereo not drawn) [Compound 126, 2-{[6-({5-chloro-2-[4-({2-[2-(2,6-dioxopiperidin-3-yl)-1,3-dioxo-2,3-dihydro-1H-isoindol-5-yl]-5,5-difluoro-2,7-diazaspiro[3.5]nonan-7-yl}methyl)piperidin-1-yl]pyrimidin-4-yl}amino)-1-(2-methoxyethyl)-2-oxo-1,2-dihydroquinolin-3-yl]oxy}-N-methylacetamide] are under 10 nM and under 50%.
On the same counts, the results for `CNC(=O)COc1cc2cc(Nc3nc(N4CCC(CN5CCC6(CN(c7ccc8c(c7)C(=O)N(C7CCC(=O)NC7=O)C8=O)C6)C(F)(F)C5)CC4)ncc3Cl)ccc2n(C)c1=O` (stereo not drawn) [Compound 127, 2-{[6-({5-chloro-2-[4-({2-[2-(2,6-dioxopiperidin-3-yl)-1,3-dioxo-2,3-dihydro-1H-isoindol-5-yl]-5,5-difluoro-2,7-diazaspiro[3.5]nonan-7-yl}methyl)piperidin-1-yl]pyrimidin-4-yl}amino)-1-methyl-2-oxo-1,2-dihydroquinolin-3-yl]oxy}-N-methylacetamide] are under 10 nM and under 50%.
On the same counts, the results for `CNC(=O)COc1cc2cc(Nc3nc(N4CCC(O[C@H]5C[C@H](N6CCC(c7cc(F)c8c(c7OC)CN(C7CCC(=O)NC7=O)C8=O)CC6)C5)CC4)ncc3Cl)ccc2n(C(C)C)c1=O` (stereo partly drawn) [Compound 128, 2-({6-[(5-chloro-2-{4-[(1r,3r)-3-{4-[2-(2,6-dioxopiperidin-3-yl)-7-fluoro-4-methoxy-1-oxo-2,3-dihydro-1H-isoindol-5-yl]piperidin-1-yl}cyclobutoxy]piperidin-1-yl}pyrimidin-4-yl)amino]-2-oxo-1-(propan-2-yl)-1,2-dihydroquinolin-3-yl}oxy)-N-methylacetamide] are under 10 nM and 50 to 70%.
On to `CNC(=O)COc1cc2cc(Nc3nc(N4CCC5(CCN(CC6(F)CCN(c7ccc(F)c8c7CN(C7CCC(=O)NC7=O)C8=O)CC6)CC5)CC4)ncc3Cl)ccc2n(C(C)C)c1=O` (stereo not drawn) [Compound 129, 2-{[6-({5-chloro-2-[9-({1-[2-(2,6-dioxopiperidin-3-yl)-7-fluoro-1-oxo-2,3-dihydro-1H-isoindol-4-yl]-4-fluoropiperidin-4-yl}methyl)-3,9-diazaspiro[5.5]undecan-3-yl]pyrimidin-4-yl}amino)-2-oxo-1-(propan-2-yl)-1,2-dihydroquinolin-3-yl]oxy}-N-methylacetamide], for which the DC50 is under 10 nM and the Dmax is 50 to 70%.
As for `CNC(=O)COc1cc2cc(Nc3nc(N4CCC5(CCN(CC6(F)CCN(c7ccc(F)c8c7C(=O)N(C7CCC(=O)NC7=O)C8)CC6)CC5)CC4)ncc3Cl)ccc2n(C(C)C)c1=O` (stereo not drawn) [Compound 130, 2-{[6-({5-chloro-2-[9-({1-[2-(2,6-dioxopiperidin-3-yl)-7-fluoro-3-oxo-2,3-dihydro-1H-isoindol-4-yl]-4-fluoropiperidin-4-yl}methyl)-3,9-diazaspiro[5.5]undecan-3-yl]pyrimidin-4-yl}amino)-2-oxo-1-(propan-2-yl)-1,2-dihydroquinolin-3-yl]oxy}-N-methylacetamide], the half-maximal degradation concentration (DC50) is at least 100 nM and the Dmax is at least 70%.

Source of the values: patent publication US11986532B2 (Arvinas Operations, Inc., priority 2021, dated 2024).
